Results: PubChem BioAssay (NCI)
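GI50 is the concentration that inhibits growth by half. TGI is the concentration that stops growth completely.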

Legend:
Experiment in all cases: NCI-60 cell line screen, 384-well format
TK-10 renal = system: TK-10 renal
SK-OV-3 ovarian = system: SK-OV-3 ovarian
UO-31 renal = system: UO-31 renal
HOP-62 NSCLC = system: HOP-62 NSCLC
CAKI-1 renal = system: CAKI-1 renal
SK-MEL-2 melanoma = system: SK-MEL-2 melanoma
RXF 393 renal = system: RXF 393 renal
T-47D breast = system: T-47D breast
SF-295 CNS = system: SF-295 CNS
NCI-H522 lung = system: NCI-H522 lung
KM12 colon = system: KM12 colon
HS 578T breast = system: HS 578T breast
OVCAR-8 ovarian = system: OVCAR-8 ovarian
EKVX NSCLC = system: EKVX NSCLC
NCI-H460 NSCLC = system: NCI-H460 NSCLC
HT29 colon = system: HT29 colon
HOP-92 NSCLC = system: HOP-92 NSCLC
LOX IMVI melanoma = system: LOX IMVI melanoma
SF-268 CNS = system: SF-268 CNS
NCI-H23 lung = system: NCI-H23 lung
CCRF-CEM leukemia = system: CCRF-CEM leukemia
HL-60(TB) leukemia = system: HL-60(TB) leukemia
SW-620 colon = system: SW-620 colon
MALME-3M melanoma = system: MALME-3M melanoma
SNB-19 CNS = system: SNB-19 CNS
RPMI-8226 leukemia = system: RPMI-8226 leukemia
HCT-15 colon = system: HCT-15 colon
MOLT-4 leukemia = system: MOLT-4 leukemia
SNB-75 CNS = system: SNB-75 CNS
HCT-116 colon = system: HCT-116 colon
786-0 renal = system: 786-0 renal
PC-3 prostate = system: PC-3 prostate
SK-MEL-5 melanoma = system: SK-MEL-5 melanoma
DU-145 prostate = system: DU-145 prostate
OVCAR-4 ovarian = system: OVCAR-4 ovarian
HCC-2998 colon = system: HCC-2998 colon
UACC-62 melanoma = system: UACC-62 melanoma
A549 NSCLC = system: A549 NSCLC
SF-539 CNS = system: SF-539 CNS
BT-549 breast = system: BT-549 breast
OVCAR-5 ovarian = system: OVCAR-5 ovarian
OVCAR-3 ovarian = system: OVCAR-3 ovarian
SK-MEL-28 melanoma = system: SK-MEL-28 melanoma
NCI/ADR-RES ovarian = system: NCI/ADR-RES ovarian
MCF7 breast = system: MCF7 breast
ACHN renal = system: ACHN renal
SN12C renal = system: SN12C renal
U251 glioblastoma = system: U251 glioblastoma
IGROV1 ovarian = system: IGROV1 ovarian
NCI-H322M lung = system: NCI-H322M lung
NCI-H226 lung = system: NCI-H226 lung
A498 renal = system: A498 renal
K-562 leukemia = system: K-562 leukemia
UACC-257 melanoma = system: UACC-257 melanoma
MDA-MB-231 breast = system: MDA-MB-231 breast
MDA-MB-435 melanoma = system: MDA-MB-435 melanoma
M14 melanoma = system: M14 melanoma
COLO 205 colon = system: COLO 205 colon
MDA-MB-468 breast = system: MDA-MB-468 breast

In the case of `C=CC(=O)N1CCC(Oc2cc3c(Nc4ccc(Cl)c(Cl)c4F)ncnc3cc2OC)CC1`, the GI50 (TK-10 renal) is reported as under 0.01 µM, the TGI (TK-10 renal) is reported as 0.738 µM and the GI50 (SK-OV-3 ovarian) is reported as under 0.01 µM. The TGI (SK-OV-3 ovarian) was 1.52 µM, the GI50 (UO-31 renal) was 0.137 µM and the TGI (UO-31 renal) was 2.08 µM. The GI50 (HOP-62 NSCLC) was 2.27 µM, the TGI (HOP-62 NSCLC) was 8.53 µM and the GI50 (CAKI-1 renal) was 0.198 µM. The TGI (CAKI-1 renal) was 1.7 µM, the GI50 (SK-MEL-2 melanoma) was 1.75 µM and the TGI (SK-MEL-2 melanoma) was 4.66 µM. For the same compound, the GI50 (RXF 393 renal) was 0.23 µM, the TGI (RXF 393 renal) was 1.31 µM and the GI50 (T-47D breast) was 0.0173 µM. For the same compound, the TGI (T-47D breast) was 7.89 µM, the GI50 (SF-295 CNS) was 4.15 µM and the TGI (SF-295 CNS) was 14.9 µM. For the same compound, the GI50 (NCI-H522 lung) was under 0.01 µM, the TGI (NCI-H522 lung) was 0.0162 µM and the GI50 (KM12 colon) was 3.07 µM. For the same compound, the TGI (KM12 colon) was 12.7 µM, the GI50 (HS 578T breast) was 1.04 µM and the TGI (HS 578T breast) was 2.46 µM. For the same compound, the GI50 (OVCAR-8 ovarian) was 1.95 µM, the TGI (OVCAR-8 ovarian) was 12.2 µM and the GI50 (EKVX NSCLC) was under 0.01 µM. For the same compound, the TGI (EKVX NSCLC) was 2.14 µM, the GI50 (NCI-H460 NSCLC) was 2.87 µM and the TGI (NCI-H460 NSCLC) was 13.7 µM. It also gave a GI50 (HT29 colon) of 2.42 µM, a TGI (HT29 colon) of 11.9 µM and a GI50 (HOP-92 NSCLC) of 1.39 µM. The TGI (HOP-92 NSCLC) was 4.02 µM, the GI50 (LOX IMVI melanoma) was 1.62 µM and the TGI (LOX IMVI melanoma) was 3.47 µM. For the same compound, the GI50 (SF-268 CNS) was 1.19 µM, the TGI (SF-268 CNS) was 5.58 µM and the GI50 (NCI-H23 lung) was 1.78 µM. The TGI (NCI-H23 lung) was 6.13 µM, the GI50 (CCRF-CEM leukemia) was 1.26 µM and the TGI (CCRF-CEM leukemia) was 2.74 µM. It also gave a GI50 (HL-60(TB) leukemia) of 1.94 µM, a TGI (HL-60(TB) leukemia) of 3.49 µM and a GI50 (SW-620 colon) of 4.42 µM. The TGI (SW-620 colon) was 16.6 µM, the GI50 (MALME-3M melanoma) was 2.52 µM and the TGI (MALME-3M melanoma) was 11.2 µM. The GI50 (SNB-19 CNS) was 2.92 µM, the TGI (SNB-19 CNS) was 14.4 µM and the GI50 (RPMI-8226 leukemia) was 1.25 µM. It also gave a TGI (RPMI-8226 leukemia) of 3.26 µM, a GI50 (HCT-15 colon) of 2.38 µM and a TGI (HCT-15 colon) of 12.7 µM. It also gave a GI50 (MOLT-4 leukemia) of 0.43 µM, a TGI (MOLT-4 leukemia) of 1.88 µM and a GI50 (SNB-75 CNS) of 0.291 µM. The TGI (SNB-75 CNS) was 2.13 µM, the GI50 (HCT-116 colon) was 3.73 µM and the TGI (HCT-116 colon) was 15.2 µM. For the same compound, the GI50 ([…]-0 renal) was 1.31 µM, the TGI (786-0 renal) was 4.74 µM and the GI50 (PC-3 prostate) was 1.96 µM. The TGI (PC-3 prostate) was 10.4 µM, the GI50 (SK-MEL-5 melanoma) was 2.98 µM and the TGI (SK-MEL-5 melanoma) was 13.3 µM. The GI50 (DU-145 prostate) was 0.879 µM, the TGI (DU-145 prostate) was 14.6 µM and the GI50 (OVCAR-4 ovarian) was 0.363 µM. For the same compound, the TGI (OVCAR-4 ovarian) was 5.42 µM, the GI50 (HCC-2998 colon) was 1.62 µM and the TGI (HCC-2998 colon) was 7.47 µM. It also gave a GI50 (UACC-62 melanoma) of 2.44 µM, a TGI (UACC-62 melanoma) of 11.6 µM and a GI50 (A549 NSCLC) of 1.24 µM. The TGI (A549 NSCLC) was 12 µM, the GI50 (SF-539 CNS) was 1.36 µM and the TGI (SF-539 CNS) was 3.56 µM. For the same compound, the GI50 (BT-549 breast) was 1.11 µM, the TGI (BT-549 breast) was 3.99 µM and the GI50 (OVCAR-5 ovarian) was 1.23 µM. The TGI (OVCAR-5 ovarian) was 11.8 µM, the GI50 (OVCAR-3 ovarian) was 0.244 µM and the TGI (OVCAR-3 ovarian) was 3.21 µM. The GI50 (SK-MEL-28 melanoma) was 14 µM, the TGI (SK-MEL-28 melanoma) was 27.1 µM and the GI50 (NCI/ADR-RES ovarian) was 1.1 µM. The TGI (NCI/ADR-RES ovarian) was 3.21 µM, the GI50 (MCF7 breast) was 0.69 µM and the TGI (MCF7 breast) was 14.1 µM. The GI50 (ACHN renal) was under 0.01 µM, the TGI (ACHN renal) was 11.2 µM and the GI50 (SN12C renal) was 0.353 µM. For the same compound, the TGI (SN12C renal) was 6.44 µM, the GI50 (U251 glioblastoma) was 3.52 µM and the TGI (U251 glioblastoma) was 15.7 µM. The GI50 (IGROV1 ovarian) was under 0.01 µM, the TGI (IGROV1 ovarian) was 0.817 µM and the GI50 (NCI-H322M lung) was under 0.01 µM. The TGI (NCI-H322M lung) was 4.15 µM, the GI50 (NCI-H226 lung) was 0.813 µM and the TGI (NCI-H226 lung) was 13.2 µM. For the same compound, the GI50 (A498 renal) was 0.137 µM, the TGI (A498 renal) was 1.95 µM and the GI50 (K-562 leukemia) was 1.27 µM. It also gave a TGI (K-562 leukemia) of 2.88 µM, a GI50 (UACC-257 melanoma) of 3.33 µM and a TGI (UACC-257 melanoma) of 13.6 µM. For the same compound, the GI50 (MDA-MB-231 breast) was 2.1 µM, the TGI (MDA-MB-231 breast) was 14 µM and the GI50 (MDA-MB-435 melanoma) was 2.64 µM. It also gave a TGI (MDA-MB-435 melanoma) of 10.9 µM, a GI50 (M14 melanoma) of 3.01 µM and a TGI (M14 melanoma) of 15.4 µM. For the same compound, the GI50 (COLO 205 colon) was 4.34 µM, the TGI (COLO 205 colon) was 18.4 µM and the GI50 (MDA-MB-468 breast) was under 0.01 µM. It also gave a TGI (MDA-MB-468 breast) of under 0.01 µM.
